Measurements taken from patent US11076595B2, “1-(n,n-disubstituted carbamoyl) 4-(substituted sulfonyl)triazolin-5-one derivative, 4-(n,n-disubstituted carbamoyl) 1-(substituted sulfonyl)triazolin-5-one derivative, and herbicide containing said derivative as active ingredient” (HOKKO CHEMICAL INDUSTRY CO., LTD., priority 2017, dated 2021).

Tests used:
Type in all cases: in vivo
[1] = tested on: Lindernia pyxidaria; test: Test Example 1: herbicidal effect test by soil treatment in paddy field; settings: 120 g/10a, paddy soil treatment just after sowing, 14 days after treatment
From the text: (§1) A Wagner pot having an area of 1/10000 are was filled with paddy field soil and after adding water, a chemical fertilizer (N:P:K=17:17:17) was mixed, followed by puddling. Thereafter, 30 grains of each of Echinochloa crus-galli, broad-leaved weed (Lindernia pyxidaria and Monochoria vaginalis) and Scirpus juncoides seeds were sown to a depth of 0 to 1 cm. Immediately after the sowing, the pot was flooded, and the depth of water was kept at about 3 cm. The pot was subsequently managed in a glass greenhouse. Just after that, an emulsifiable concentrate prepared according to Formulation Example 5 by using the compound shown in Table 5 below was diluted with water, and a predetermined amount of the water-diluted formulation was added dropwise. The application rate of the active ingredient, by conversion, corresponded to 120 g per 10 are.
(§2) This test was performed with two replications per one formulation concentration plot, and 14 days after the formulation treatments, the weed suppression rate (%) was determined according to the following equation (Math. 1). Weed suppression rate (%)=(1−an average dry weight (g) of plants in treated plots/an average dry weight (g) of plants in untreated plots)×100 [Math. 1]

[2] = tested on: Echinochloa crus-galli; test: as above; settings: 120 g/10a, paddy soil treatment just after sowing, 14 days after treatment
From the text: as §1, §2

[3] = tested on: Scirpus juncoides; test: as above; settings: 120 g/10a, paddy soil treatment just after sowing, 14 days after treatment
From the text: as §1, §2

[4] = tested on: Monochoria vaginalis; test: as above; settings: 120 g/10a, paddy soil treatment just after sowing, 14 days after treatment
From the text: as §1, §2

[5] = tested on: Lindernia pyxidaria; test: Test Example 2: herbicidal effect test by treatment during growing period in paddy field; settings: treatment 7 days after sowing, 120 g/10a, evaluated 14 days after treatment
Experimental: as §2
as §1, with “greenhouse. Seven days” for “greenhouse. Just”, “after sowing,” for “after that,”, “Table 6” for “Table 5”, “are. The test was performed with two replications per one formulation concentration plot, and 14 days after the formulation treatments, the weed suppression rate (%) was determined according to the equation (Math. 1).” for “are.”

[6] = tested on: Echinochloa crus-galli; test: as above; settings: treatment 7 days after sowing, 120 g/10a, evaluated 14 days after treatment
Experimental: as §2
as §1, with “greenhouse. Seven days” for “greenhouse. Just”, “after sowing,” for “after that,”, “Table 6” for “Table 5”, “are. The test was performed with two replications per one formulation concentration plot, and 14 days after the formulation treatments, the weed suppression rate (%) was determined according to the equation (Math. 1).” for “are.”

[7] = tested on: Scirpus juncoides; test: as above; settings: treatment 7 days after sowing, 120 g/10a, evaluated 14 days after treatment
Experimental: as §2
as §1, with “greenhouse. Seven days” for “greenhouse. Just”, “after sowing,” for “after that,”, “Table 6” for “Table 5”, “are. The test was performed with two replications per one formulation concentration plot, and 14 days after the formulation treatments, the weed suppression rate (%) was determined according to the equation (Math. 1).” for “are.”

[8] = tested on: Monochoria vaginalis; test: as above; settings: treatment 7 days after sowing, 120 g/10a, evaluated 14 days after treatment
Experimental: as §2
as §1, with “greenhouse. Seven days” for “greenhouse. Just”, “after sowing,” for “after that,”, “Table 6” for “Table 5”, “are. The test was performed with two replications per one formulation concentration plot, and 14 days after the formulation treatments, the weed suppression rate (%) was determined according to the equation (Math. 1).” for “are.”

Structure (SMILES) | weed suppression rate, Lindemia pyxidaria [1] [%] | weed suppression rate, Echinochloa crus-galli [2] [%] | weed suppression rate, Scirpus juncoides [3] [%] | weed suppression rate, Monochoria vaginalis [4] [%] | weed suppression rate, Lindemia pyxidaria [5] [%] | weed suppression rate, Echinochloa crus-galli [6] [%] | weed suppression rate, Scirpus juncoides [7] [%] | weed suppression rate, Monochoria vaginalis [8] [%]
CC(C)N(C(=O)n1ncn(S(=O)(=O)C(C)C)c1=O)c1ccc(Cl)cc1F [Compound 1-73] | 100 | 100 | 80 | 90 | 80 | 100 | 100 | 90
CC(C)N(C(=O)n1ncn(S(=O)(=O)N(C)C)c1=O)c1ccc(F)nc1 [Compound 1-1129] | 80 | 90 | 90 | 80 | 80 | 90 | 90 | 80
CC(C)N(C(=O)n1ncn(S(=O)(=O)C2CC2)c1=O)c1ccc(Cl)nc1 [Compound 1-248] | 100 | 100 | 100 | 90 | 90 | 100 | 90 | 90
CC(C)N(C(=O)n1ncn(S(=O)(=O)N(C)C)c1=O)c1ccccc1F [Compound 1-1093] | 80 | 90 | 90 | 80 | 80 | 90 | 90 | 80
CC(C)N(Cc1ccc(F)cc1F)C(=O)n1ncn(S(=O)(=O)C2CC2)c1=O [Compound 1-238] | 80 | 90 | 90 | 80 | 80 | 90 | 90 | 90
CC(C)N(C(=O)n1ncn(S(=O)(=O)C2CCCCC2)c1=O)c1ccc(C#N)cc1Cl [Compound 1-328] | 80 | 90 | 90 | 80 | 80 | 90 | 90 | 80
Cc1cc(N(C(=O)n2ncn(S(=O)(=O)C3CC3)c2=O)C(C)C)no1 [Compound 1-250] | 80 | 90 | 90 | 80 | 90 | 90 | 80 | 90
CC(C)N(C(=O)n1ncn(S(=O)(=O)c2cccs2)c1=O)c1ccc(F)cc1 [Compound 1-1052] | 80 | 90 | 90 | 80 | 80 | 90 | 90 | 80
Cc1ccc(N(C(=O)n2ncn(S(=O)(=O)C3CCCCC3)c2=O)C(C)C)c(Cl)c1 [Compound 1-322] | 90 | 90 | 90 | 90 | 80 | 90 | 90 | 80
CC(C)N(C(=O)n1ncn(S(=O)(=O)C(C)C)c1=O)c1ccc(Cl)nc1 [Compound 1-97] | 80 | 90 | 90 | 90 | 80 | 90 | 80 | 90
CC(C)N(C(=O)n1ncn(S(=O)(=O)C(C)C)c1=O)c1ccccc1F [Compound 1-55] | 90 | 90 | 90 | 90 | 90 | 90 | 90 | 90
CC(C)N(C(=O)n1ncn(S(=O)(=O)C2CC2)c1=O)c1ccc(Cl)cc1Br [Compound 1-219] | 100 | 100 | 100 | 100 | 90 | 100 | 100 | 90
Cc1ccc(N(C(=O)n2ncn(S(=O)(=O)C3CCCCC3)c2=O)C(C)C)c(F)c1 [Compound 1-320] | 90 | 90 | 90 | 90 | 80 | 90 | 90 | 80
CC(C)N(C(=O)n1ncn(S(=O)(=O)C2CCCCC2)c1=O)c1ccc(Cl)nc1 [Compound 1-338] | 90 | 100 | 100 | 90 | 80 | 90 | 90 | 80
Cc1ccc(N(C(=O)n2ncn(S(=O)(=O)C3CC3)c2=O)C(C)C)c(Cl)c1 [Compound 1-223] | 80 | 100 | 90 | 80 | 80 | 90 | 90 | 80
